Data from patent US6900182B1, “Inositolphosphoglycan and ribose for treatment of ischaemia-reperfusion injury” (Sylus Pharmaceuticals Ltd., priority 1998, dated 2005).

Tests used:
[1] = test system: rat heart preparations; experiment: tissue PRPP concentration of rat heart preparations in anoxic conditions; conditions: ribose added to the medium
Excerpt: Perhaps of greater significance was our observation of the decline in cellular PRPP in a range of tissues, including heart, in experimental diabetes (see Table 1).

[2] = test system: myocardial adenine nucleotides; conditions: cited from earlier work
[3] = test system: IPG P-type; experiment: extractable IPG P-type from tissues before and after insulin (PDH phosphatase assay); format: in vivo, rats; conditions: 2 minutes after injection with insulin
Experimental: FIGS. 4C and 4D show the steady state concentration and the effect of insulin on extractable IPG P-type from heart and other tissues from adult male rats. […] The solid columns show results in the absence of insulin, while the hatched columns show results 2 minutes after injection with insulin. 1 unit is the amount of P-type IPG causing a 50% increase in the activity of PDH phosphatase or a 50% decrease in the activity of cAMP dependent protein kinase.
Under anoxic conditions, this is difficult since the enzyme PDH kinase is activated. The action of this enzyme is to inactivate the PDH complex, which is involved in the biosynthesis of acetyl-CoA and NADH. The NADH so generated in the reperfusion period is oxidized by the electron transport chain to generate ATP. The acetyl-CoA is a substrate for the Krebs cycle in which one glucose can be oxidized to 36 ATPs via the generation of further NADH. The action of IPG-P type mediators is to activate PDH phosphatase which counteracts the PDH kinase and allows for activation of the PDH complex.

Row | IPG P-type activity recovered from tissue upon insulin infusion ([3]; adipose tissue) | IPG P-type activity recovered from tissue upon insulin infusion ([3]; brain) | IPG P-type activity recovered from tissue upon insulin infusion ([3]; heart) | IPG P-type activity recovered from tissue upon insulin infusion ([3]; kidney) | IPG P-type activity recovered from tissue upon insulin infusion ([3]; muscle) | Compound | tissue PRPP concentration [1] | restitution of myocardial adenine nucleotides ([2]; Zimmer (1980)) | global heart function ([2]; overloaded and catecholamine-stimulated heart and infarcted heart rat models, Zimmer (1996)) | normalisation of depressed heart function ([2]; rats, Zimmer (1983))
1 |  |  |  |  |  | O=C[C@H](O)[C@H](O)[C@H](O)CO [ribose] | partially restored | accelerated | improvement in global heart function | accelerated
2 | decreased activity | decreased activity | decreased activity | increase in activity | increase in activity | insulin |  |  |  | 
